Activity calls are given as the source filed them.
Tests used:
Caspase-6 = molecular target: T1, Caspase-6 (Homo sapiens, UniProt P55212); assay: inhibition of CASP6 peptide cleavage – biochemical, VEID-R110 fluorescence, cherry-pick, dose response (AID 720632)
T1 sequence (P55212 whole entry): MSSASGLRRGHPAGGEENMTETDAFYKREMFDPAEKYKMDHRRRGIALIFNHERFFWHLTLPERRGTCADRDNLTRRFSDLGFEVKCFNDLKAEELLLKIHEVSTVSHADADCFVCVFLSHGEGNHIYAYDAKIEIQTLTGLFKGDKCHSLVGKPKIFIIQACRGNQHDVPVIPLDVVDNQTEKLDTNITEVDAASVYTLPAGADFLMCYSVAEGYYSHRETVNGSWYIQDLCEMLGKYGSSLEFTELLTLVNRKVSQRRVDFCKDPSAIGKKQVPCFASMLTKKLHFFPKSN

Genome polyprotein = Genome polyprotein (Hepatitis C virus, UniProt Q2Q167); assay: disruption of hepatitis C core self-association – biochemical, TR-FRET, dose response (AID 2159); set-up: species or system Hepacivirus hominis;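 further: blocks dimerization of HCV core protein measured by TR-FRET between tagged core106 pairs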
[1] = molecular target: T2, Small ubiquitin-related modifier 1 (Homo sapiens, UniProt P63165); assay: SUMO1 protein-protein binding blockers, potency – biochemical, FRET, dose response (AID 624383); type: functional; settings: read-out: IC50_Mean
[2] = molecular target: NAD-dependent protein deacylase sirtuin-5, mitochondrial (Homo sapiens, UniProt Q9NXA8); assay: sirtuin-5 deacylation blockers, concentration series – biochemical, fluorescence imaging, cherry-pick, set 5, dose response (AID 720591);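 further: desuccinylation of succinyl peptide AMC substrate read as fluorescence after trypsin release; potency of inhibitors that lower fluorescence and may act on trypsin instead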
Caspase-9 = Caspase-9 (Homo sapiens, UniProt P55211); assay: inhibitors of purified CASP9 protease – biochemical, fluorescence, plate reader, cherry-picked samples, selectivity assay for caspase-6 inhibitor project, dose response (AID 743293)
Large T antigen = Large T antigen (Simian virus 40, UniProt P03070); type: functional, Betapolyomavirus macacae;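 further: Confirmatory-stage PubChem screen for compounds that inhibit SV40 T antigen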
[3] = molecular target: T2, Small ubiquitin-related modifier 1; assay: SUMO1 protein interaction blockers, potency – biochemical, fluorescence polarization, uHTS hits, dose response (AID 624382); type: functional; settings: read-out: IC50_Mean
Caspase-8 = Caspase-8 (Homo sapiens, UniProt Q14790); assay: inhibitors of purified CASP8 protease – biochemical, Z-IETD-R110 fluorescence, cherry-picked samples, selectivity assay for caspase-6 inhibitor project, dose response (AID 743294)
Troponin, cardiac muscle = Troponin, cardiac muscle (Homo sapiens, UniProt P19429+P45379+P63316); assay: compounds desensitizing RTF to calcium – biochemical, fluorescence, cardiac regulated thin filaments, triplicate IC50, dose response (AID 504742); type: protein-complex assay
[4] = molecular target: T3, Ubiquitin-conjugating enzyme E2 N (Homo sapiens, UniProt P61088); type: functional;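 further: Dose-response confirmation in a TR-FRET assay detecting UBC13-driven polyubiquitin chain formation, inhibition measured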
T3 sequence (P61088 whole entry): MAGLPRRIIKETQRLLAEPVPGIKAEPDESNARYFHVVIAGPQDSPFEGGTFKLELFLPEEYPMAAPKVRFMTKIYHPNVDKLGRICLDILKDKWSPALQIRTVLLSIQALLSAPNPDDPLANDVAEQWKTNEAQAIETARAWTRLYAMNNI

[5] = molecular target: DNA damage-inducible transcript 3 protein (Mus musculus, UniProt P35639); type: functional, Cricetulus griseus
Leucine aminopeptidase = molecular target: T4, Leucine aminopeptidase (Plasmodium falciparum 3D7, UniProt Q8IL11); assay: P. falciparum M17LAP inhibitors, primary screen, biochemical, fluorogenic H-Leu-NHMec substrate, 1536-well (AID 1619); type: functional
T4 sequence (Q8IL11 whole entry): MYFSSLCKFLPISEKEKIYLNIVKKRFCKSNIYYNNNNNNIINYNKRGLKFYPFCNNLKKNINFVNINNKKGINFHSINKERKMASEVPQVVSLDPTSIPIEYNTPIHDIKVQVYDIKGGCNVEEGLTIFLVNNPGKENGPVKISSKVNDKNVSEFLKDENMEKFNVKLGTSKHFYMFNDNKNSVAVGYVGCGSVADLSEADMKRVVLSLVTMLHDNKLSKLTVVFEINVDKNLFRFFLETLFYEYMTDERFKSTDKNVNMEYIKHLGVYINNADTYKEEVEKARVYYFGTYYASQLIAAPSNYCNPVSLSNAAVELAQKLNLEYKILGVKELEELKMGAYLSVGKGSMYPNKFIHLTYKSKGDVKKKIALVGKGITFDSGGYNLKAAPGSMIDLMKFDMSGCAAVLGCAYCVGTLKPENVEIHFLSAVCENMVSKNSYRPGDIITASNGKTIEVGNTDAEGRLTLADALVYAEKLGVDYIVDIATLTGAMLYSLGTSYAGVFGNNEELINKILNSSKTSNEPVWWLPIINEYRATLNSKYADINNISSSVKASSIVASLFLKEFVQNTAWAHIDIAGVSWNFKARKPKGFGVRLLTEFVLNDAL

[6] = molecular target: DNA dC->dU-editing enzyme APOBEC-3A (Homo sapiens, UniProt P31941); assay: A3A deaminase inhibition for selectivity – biochemical, dose response (AID 504722); type: functional
[7] = molecular target: DNA dC->dU-editing enzyme APOBEC-3G (Homo sapiens, UniProt Q9HC16); assay: Dose Response confirmation of small molecule APOBEC3G DNA Deaminase Inhibitors via a fluorescence-based single-stranded DNA deaminase assay. [Related pubchem assays (depositor defined):AID493012, AID493028]; type: functional
[8] = molecular target: T5, Voltage-gated N-type calcium channel alpha-1B subunit/Amyloid beta A4 precursor protein-binding family A member 1 (Homo sapiens, UniProt Q00975+Q02410); type: protein assay
[9] = molecular target: T5, Voltage-gated N-type calcium channel alpha-1B subunit/Amyloid beta A4 precursor protein-binding family A member 1; type: protein assay; remark: listed apart in the source

T5 sequence (Q00975 whole entry): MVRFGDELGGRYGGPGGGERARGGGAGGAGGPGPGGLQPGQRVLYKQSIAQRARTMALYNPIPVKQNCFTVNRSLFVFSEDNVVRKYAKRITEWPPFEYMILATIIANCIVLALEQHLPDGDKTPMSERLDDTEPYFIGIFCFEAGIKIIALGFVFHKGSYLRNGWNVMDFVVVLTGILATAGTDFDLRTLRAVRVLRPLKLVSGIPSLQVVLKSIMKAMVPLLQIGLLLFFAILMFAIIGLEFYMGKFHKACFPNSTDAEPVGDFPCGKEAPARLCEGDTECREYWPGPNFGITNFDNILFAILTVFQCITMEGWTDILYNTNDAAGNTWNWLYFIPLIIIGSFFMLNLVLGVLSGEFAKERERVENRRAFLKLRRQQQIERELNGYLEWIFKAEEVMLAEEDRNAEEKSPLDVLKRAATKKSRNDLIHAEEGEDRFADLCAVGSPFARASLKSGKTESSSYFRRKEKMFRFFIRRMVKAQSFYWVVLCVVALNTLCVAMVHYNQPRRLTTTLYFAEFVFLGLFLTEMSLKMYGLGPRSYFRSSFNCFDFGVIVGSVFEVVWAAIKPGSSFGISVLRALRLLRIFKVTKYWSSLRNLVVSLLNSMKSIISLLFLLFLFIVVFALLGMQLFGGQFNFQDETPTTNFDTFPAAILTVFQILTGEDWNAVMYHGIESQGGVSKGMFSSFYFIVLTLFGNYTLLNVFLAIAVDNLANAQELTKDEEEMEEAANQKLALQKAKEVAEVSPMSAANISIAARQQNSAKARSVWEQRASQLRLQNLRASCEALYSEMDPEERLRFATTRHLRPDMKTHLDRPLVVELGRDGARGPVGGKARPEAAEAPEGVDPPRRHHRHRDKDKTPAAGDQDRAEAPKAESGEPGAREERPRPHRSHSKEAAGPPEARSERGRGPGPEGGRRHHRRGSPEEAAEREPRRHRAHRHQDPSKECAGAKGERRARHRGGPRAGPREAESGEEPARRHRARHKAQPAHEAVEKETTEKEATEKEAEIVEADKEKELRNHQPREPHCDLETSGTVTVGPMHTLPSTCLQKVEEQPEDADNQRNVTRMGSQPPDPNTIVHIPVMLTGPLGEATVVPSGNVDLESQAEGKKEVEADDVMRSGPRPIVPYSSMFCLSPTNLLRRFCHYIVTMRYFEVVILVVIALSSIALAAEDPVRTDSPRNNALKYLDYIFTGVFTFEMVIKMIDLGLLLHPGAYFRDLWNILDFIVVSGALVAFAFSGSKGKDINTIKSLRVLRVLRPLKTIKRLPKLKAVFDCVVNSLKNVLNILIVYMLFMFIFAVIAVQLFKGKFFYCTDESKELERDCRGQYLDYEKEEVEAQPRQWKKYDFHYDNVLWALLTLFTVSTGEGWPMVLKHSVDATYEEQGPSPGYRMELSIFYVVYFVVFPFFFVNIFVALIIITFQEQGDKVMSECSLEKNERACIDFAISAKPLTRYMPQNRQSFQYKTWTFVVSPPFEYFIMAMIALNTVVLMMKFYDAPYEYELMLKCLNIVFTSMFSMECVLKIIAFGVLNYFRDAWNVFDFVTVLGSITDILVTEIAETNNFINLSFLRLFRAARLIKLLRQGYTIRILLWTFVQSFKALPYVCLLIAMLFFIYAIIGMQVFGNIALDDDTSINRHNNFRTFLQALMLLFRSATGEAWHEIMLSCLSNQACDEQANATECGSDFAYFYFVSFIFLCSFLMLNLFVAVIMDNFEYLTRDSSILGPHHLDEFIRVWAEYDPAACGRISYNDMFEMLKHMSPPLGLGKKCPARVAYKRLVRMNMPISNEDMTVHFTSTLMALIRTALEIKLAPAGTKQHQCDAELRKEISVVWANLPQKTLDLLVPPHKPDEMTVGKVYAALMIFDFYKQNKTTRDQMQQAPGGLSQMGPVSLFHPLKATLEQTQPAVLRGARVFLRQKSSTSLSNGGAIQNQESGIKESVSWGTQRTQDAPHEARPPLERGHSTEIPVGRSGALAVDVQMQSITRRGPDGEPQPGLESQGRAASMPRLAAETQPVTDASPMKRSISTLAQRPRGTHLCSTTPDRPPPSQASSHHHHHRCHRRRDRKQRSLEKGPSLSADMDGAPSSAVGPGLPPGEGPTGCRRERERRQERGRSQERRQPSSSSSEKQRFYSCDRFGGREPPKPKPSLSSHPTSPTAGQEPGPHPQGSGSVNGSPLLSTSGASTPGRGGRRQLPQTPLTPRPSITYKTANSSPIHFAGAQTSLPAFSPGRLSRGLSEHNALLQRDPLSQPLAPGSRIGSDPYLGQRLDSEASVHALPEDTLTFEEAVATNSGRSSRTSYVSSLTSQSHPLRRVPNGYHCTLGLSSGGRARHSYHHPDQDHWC
T5 sequence (Q02410 whole entry): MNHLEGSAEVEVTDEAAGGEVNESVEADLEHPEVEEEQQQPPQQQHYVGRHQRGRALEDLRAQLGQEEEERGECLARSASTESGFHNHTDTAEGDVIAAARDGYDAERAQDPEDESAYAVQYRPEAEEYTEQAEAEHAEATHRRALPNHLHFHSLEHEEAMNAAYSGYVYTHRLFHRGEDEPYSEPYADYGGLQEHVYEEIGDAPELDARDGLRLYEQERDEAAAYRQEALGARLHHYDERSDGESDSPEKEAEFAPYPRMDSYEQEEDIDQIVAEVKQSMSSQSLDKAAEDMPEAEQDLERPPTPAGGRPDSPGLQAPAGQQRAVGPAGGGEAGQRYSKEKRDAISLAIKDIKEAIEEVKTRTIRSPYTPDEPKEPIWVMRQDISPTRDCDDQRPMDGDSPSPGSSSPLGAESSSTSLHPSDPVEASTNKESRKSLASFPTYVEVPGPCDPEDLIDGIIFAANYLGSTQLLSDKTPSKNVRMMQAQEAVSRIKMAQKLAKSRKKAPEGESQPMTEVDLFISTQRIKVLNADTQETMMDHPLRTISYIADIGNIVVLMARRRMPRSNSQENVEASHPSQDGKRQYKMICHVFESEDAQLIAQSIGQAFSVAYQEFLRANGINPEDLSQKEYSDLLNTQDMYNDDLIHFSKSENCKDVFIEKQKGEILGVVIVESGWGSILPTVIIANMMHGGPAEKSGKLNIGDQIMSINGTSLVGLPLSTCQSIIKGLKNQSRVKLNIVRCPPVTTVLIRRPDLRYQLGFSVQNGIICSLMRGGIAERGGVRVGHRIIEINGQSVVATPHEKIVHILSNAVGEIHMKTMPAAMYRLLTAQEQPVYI
T2 sequence (P63165 whole entry): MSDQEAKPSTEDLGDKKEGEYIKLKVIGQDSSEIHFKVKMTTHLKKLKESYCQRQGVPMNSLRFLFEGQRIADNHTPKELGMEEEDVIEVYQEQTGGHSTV
Chain of DNA dC->dU-editing enzyme APOBEC-3G (Q9HC16 whole entry): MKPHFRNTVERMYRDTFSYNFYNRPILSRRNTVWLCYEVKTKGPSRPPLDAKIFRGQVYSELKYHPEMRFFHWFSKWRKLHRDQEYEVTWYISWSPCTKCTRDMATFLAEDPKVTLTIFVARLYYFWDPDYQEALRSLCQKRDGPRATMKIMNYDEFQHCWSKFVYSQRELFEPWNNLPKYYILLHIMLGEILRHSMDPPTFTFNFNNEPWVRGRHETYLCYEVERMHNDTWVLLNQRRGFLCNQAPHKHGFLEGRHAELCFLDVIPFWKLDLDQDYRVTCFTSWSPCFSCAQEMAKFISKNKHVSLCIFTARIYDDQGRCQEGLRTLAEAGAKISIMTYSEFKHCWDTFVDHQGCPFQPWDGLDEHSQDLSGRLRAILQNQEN
Chain of Large T antigen (P03070 whole entry): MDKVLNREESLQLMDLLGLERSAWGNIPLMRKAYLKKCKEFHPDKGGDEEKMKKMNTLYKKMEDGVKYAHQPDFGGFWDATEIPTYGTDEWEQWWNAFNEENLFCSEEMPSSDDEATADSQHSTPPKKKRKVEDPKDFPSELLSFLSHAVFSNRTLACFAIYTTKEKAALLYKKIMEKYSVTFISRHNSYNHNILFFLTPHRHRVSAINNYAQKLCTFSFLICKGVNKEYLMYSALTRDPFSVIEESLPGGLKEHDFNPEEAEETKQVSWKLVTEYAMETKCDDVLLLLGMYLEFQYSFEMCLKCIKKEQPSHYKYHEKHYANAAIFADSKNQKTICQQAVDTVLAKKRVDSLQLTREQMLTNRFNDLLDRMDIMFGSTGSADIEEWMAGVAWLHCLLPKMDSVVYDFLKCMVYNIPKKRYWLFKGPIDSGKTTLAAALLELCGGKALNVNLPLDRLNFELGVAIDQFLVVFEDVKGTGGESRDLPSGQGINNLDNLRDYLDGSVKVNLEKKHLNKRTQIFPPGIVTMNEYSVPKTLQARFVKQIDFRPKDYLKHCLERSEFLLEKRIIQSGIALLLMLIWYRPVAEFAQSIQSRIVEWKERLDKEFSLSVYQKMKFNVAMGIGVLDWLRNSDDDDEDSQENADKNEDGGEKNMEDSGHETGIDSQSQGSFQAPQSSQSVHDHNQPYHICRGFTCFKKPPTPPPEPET
Chain of NAD-dependent protein deacylase sirtuin-5, mitochondrial (Q9NXA8 whole entry): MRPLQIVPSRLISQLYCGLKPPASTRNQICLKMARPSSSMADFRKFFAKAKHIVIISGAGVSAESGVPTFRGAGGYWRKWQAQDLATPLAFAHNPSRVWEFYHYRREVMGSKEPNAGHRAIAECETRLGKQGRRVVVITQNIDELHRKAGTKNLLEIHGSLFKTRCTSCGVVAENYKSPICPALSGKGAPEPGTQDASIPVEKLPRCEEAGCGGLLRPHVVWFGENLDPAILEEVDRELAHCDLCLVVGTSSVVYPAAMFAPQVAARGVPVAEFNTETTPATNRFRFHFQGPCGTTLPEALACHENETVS
Chain of DNA dC->dU-editing enzyme APOBEC-3A (P31941 whole entry): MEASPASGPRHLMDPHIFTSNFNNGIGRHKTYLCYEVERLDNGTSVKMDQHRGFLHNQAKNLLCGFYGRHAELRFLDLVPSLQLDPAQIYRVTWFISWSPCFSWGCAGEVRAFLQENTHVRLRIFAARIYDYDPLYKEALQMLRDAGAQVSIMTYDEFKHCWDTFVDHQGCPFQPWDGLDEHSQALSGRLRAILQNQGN
Chain of DNA damage-inducible transcript 3 protein (P35639 whole entry): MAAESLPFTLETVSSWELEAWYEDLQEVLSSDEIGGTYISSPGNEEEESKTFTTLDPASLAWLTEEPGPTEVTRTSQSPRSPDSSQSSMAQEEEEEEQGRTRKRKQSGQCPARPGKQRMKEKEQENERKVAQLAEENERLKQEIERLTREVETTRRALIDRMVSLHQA

With `COCCN(C(=O)COC(=O)c1cc2c(s1)CCC2)c1c(N)n(Cc2ccccc2)c(=O)[nH]c1=O` the AC50 (Caspase-6) was 198 nM (active), the IC50 (Genome polyprotein) was 48.6 µM (not active) and the IC50 [1] was 1.42 µM (active). For the same molecule, the AC50 [2] was > 30 µM (inactive), the AC50 (Caspase-9) was 12.1 µM (active) and the IC50 (Large T antigen) was 57.7 µM (active). The IC50 [3] was > 66.6 µM (inactive), the AC50 (Caspase-8) was > 70 µM (inactive) and the IC50 (Troponin, cardiac muscle) was 19.7 µM (inactive).

For `CCOC(=O)c1cc(-c2ccccc2)nc2c1c(C)nn2-c1ccccn1`, the IC50 [4] was > 20 µM (inactive) and the “Absolute IC50 (CHOP)” value [5] was 10 µM.

In the case of `Sc1n[nH]c(C2CCCCC2)n1`, the IC50 (Leucine aminopeptidase) is reported as 13.8 µM (active), the IC50 [6] is reported as > 100 µM (inactive) and the IC50 [7] is reported as 8.98 µM (active).

For `COc1ccc(NC(=O)c2cc3c(=O)n(C)c4ccccc4c3s2)cc1OC`, the IC50 [8] was 8 µM (active) and the IC50 [9] was > 50 µM (inactive).

Reference: ChEMBL document CHEMBL1201862, “PubChem BioAssay data set” (2004)
